Laboratory results as given in ChEMBL document CHEMBL3751795, “Discovery of pyridyl-based inhibitors of Plasmodium falciparum N-myristoyltransferase” (Medchemcomm, 2015).

Assays:
[1] = molecular target: T1, Glycylpeptide N-tetradecanoyltransferase (Plasmodium falciparum (isolate 3D7), UniProt Q8ILW6); settings: read-out: Ki(app)
T1 sequence (Q8ILW6 whole entry): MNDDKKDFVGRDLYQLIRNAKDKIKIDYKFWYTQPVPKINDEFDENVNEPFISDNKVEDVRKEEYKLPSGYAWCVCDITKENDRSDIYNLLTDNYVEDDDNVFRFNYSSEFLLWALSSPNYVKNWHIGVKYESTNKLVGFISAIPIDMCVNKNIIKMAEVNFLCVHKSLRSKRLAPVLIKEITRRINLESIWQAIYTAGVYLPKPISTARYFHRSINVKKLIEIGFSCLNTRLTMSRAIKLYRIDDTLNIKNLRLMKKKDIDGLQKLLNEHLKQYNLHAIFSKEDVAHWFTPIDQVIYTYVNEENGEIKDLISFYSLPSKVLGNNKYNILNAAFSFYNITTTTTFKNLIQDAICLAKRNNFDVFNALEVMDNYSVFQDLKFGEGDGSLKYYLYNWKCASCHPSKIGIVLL

[2] = molecular target: T2, Glycylpeptide N-tetradecanoyltransferase 1 (Homo sapiens, UniProt P30419)
T2 sequence (P30419 whole entry): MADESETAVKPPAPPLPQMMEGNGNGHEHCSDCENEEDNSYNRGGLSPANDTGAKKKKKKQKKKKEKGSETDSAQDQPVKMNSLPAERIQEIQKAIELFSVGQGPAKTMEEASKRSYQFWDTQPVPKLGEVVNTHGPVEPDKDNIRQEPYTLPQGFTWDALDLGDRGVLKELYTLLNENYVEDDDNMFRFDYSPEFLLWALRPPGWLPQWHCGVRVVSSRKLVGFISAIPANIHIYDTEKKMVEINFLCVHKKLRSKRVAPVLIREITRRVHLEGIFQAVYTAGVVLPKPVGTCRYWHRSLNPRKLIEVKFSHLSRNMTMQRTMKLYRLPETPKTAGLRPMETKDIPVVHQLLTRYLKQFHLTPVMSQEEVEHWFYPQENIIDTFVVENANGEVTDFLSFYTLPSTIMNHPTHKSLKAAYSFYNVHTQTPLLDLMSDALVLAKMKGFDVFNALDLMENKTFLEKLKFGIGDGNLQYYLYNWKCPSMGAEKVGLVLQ
Description: Inhibition of human NMT1 by 7-diethylamine-3-(4'maleimidylphenyl)-4-methylcoumarin based fluorescence assay

[3] = tested on: Plasmodium falciparum; assay: Antiparasitic activity against Plasmodium falciparum 3D7 trophozoites infected in RBC assessed as reduction in cell viability incubated for 96 hrs SyBr green assay; settings: 3D7, 96 h
[4] = Cytotoxicity against human HepG2 cells after 48 hrs by MTS assay; assay type: cell-based; settings: read-out: LD50

Compound	Ki [1] [nM]	Ki [2] [nM]	EC50 [3] [nM]	CC50 at 48 h [4] [nM]
COc1ccc(-c2nc(Cc3ccccc3)no2)c(OC2CCNCC2)c1	180	1200	–	–
COc1cccc(Cc2noc(-c3ccc(Cl)cc3OC3CCNCC3)n2)c1	30	–	–	–
Fc1ccc(-c2nc(Cc3ccccc3)no2)c(OC2CCNCC2)c1	220	4900	–	–
COc1ccc(OC2CCNCC2)c(-c2nc(Cc3ccccc3)no2)c1	4600	2300	–	–
Cc1ccc(-c2nc(Cc3ccccc3)no2)c(OC2CCNCC2)c1	620	–	–	–
COc1cccc(Cc2noc(-c3ccccc3OC3CCNCC3)n2)c1	190	1400	–	–
Cc1nn(C)c(C)c1Cc1noc(-c2cccnc2OC2CCN(C)CC2)n1	570	–	> 30000	–
Fc1cccc(-c2nc(Cc3ccccc3)no2)c1OC1CCNCC1	1500	–	–	–
Cc1nn(C)c(C)c1Cc1noc(-c2cccnc2OC2CCNCC2)n1	28	–	–	> 100000
COc1cccc(Cc2noc(-c3ccc(F)cc3OC3CCNCC3)n2)c1	71	–	–	–
Clc1ccc(OC2CCNCC2)c(-c2nc(Cc3ccccc3)no2)c1	520	–	–	–
Cc1cccc(-c2nc(Cc3ccccc3)no2)c1OC1CCNCC1	39000	–	–	–
c1cnc(OC2CCNCC2)c(-c2nc(Cc3cccc4ncccc34)no2)c1	1.7	24	210	65000
COc1cccc(Cc2noc(-c3ccc(OC)cc3OC3CCNCC3)n2)c1	71	–	–	–
Clc1ccc(-c2nc(Cc3ccccc3)no2)c(OC2CCNCC2)c1	290	–	–	–
c1ccc(Cc2noc(-c3ccccc3OC3CCNCC3)n2)cc1	1400	–	–	–
Cc1nn(C)c(C)c1Cc1noc(-c2cccnc2OC2CCN(C(C)C)CC2)n1	90	–	–	> 100000
COc1cccc(Cc2noc(-c3cccnc3OC3CCNCC3)n2)c1	27	–	–	–
CCN1CCC(Oc2ncccc2-c2nc(Cc3c(C)nn(C)c3C)no2)CC1	340	–	> 10000	–
c1ccc(Cc2noc(-c3cccnc3OC3CCNCC3)n2)cc1	140	1700	–	–
Cc1ccc(OC2CCNCC2)c(-c2nc(Cc3ccccc3)no2)c1	29000	–	–	–
Fc1ccc(OC2CCNCC2)c(-c2nc(Cc3ccccc3)no2)c1	240	1000	–	–
Fc1cccc(OC2CCNCC2)c1-c1nc(Cc2ccccc2)no1	4800	–	–	–
COc1cccc(-c2nc(Cc3ccccc3)no2)c1OC1CCNCC1	17000	–	–	–
c1ccc(Cc2noc(-c3ncccc3OC3CCNCC3)n2)cc1	29000	–	–	–
